We go through 32 molecules from patent US5747500A, “Antiviral 2, 4-pyrimidinedione derivatives” (priority 1993, dated 1998).

Series [1] can be described thus: cytotoxicity: viability of mock-infected MT-4 host cells (MTT method). The format is cell-based. The settings on record: human, mt-4 cells, read-out: CD50: Cytotoxic concentration that causes death of cells by 50%. As to the method:
The cytotoxicity of the compounds of the present invention was assessed in parallel with their antiviral activity. It was based on the viability of mock-infected host cells as determined by the MTT methods (se J. Virol. Methods, 20, 309 (1988)).
CD50 : Cytotoxic concentration that causes death of cells by 50%
A general note: Tetrazolium assays rely on reduction of a dye to a coloured formazan, in cell work by metabolically active cells.

A further series deals with HIV. Kind of series: inhibition of HIV-induced cytopathic effect in MT-4 cells (MTT method). The format is cell-based. The settings on record: for EC50: Human immunodeficiency virus 1, MT4, HIV-infected MT-4 cells, 1000 CCID50, 4 or 5 day incubation at 37° C., MTT method, read-out: ED50: Effective concentration for the inhibition of the proliferation of HIV by 50%; for S.I.: Selectivity index (CD50/ED50): ratio CD50/ED50, MT-4 cells. As to the method: The anti-HIV assays were based on the inhibition of the virus-induced cytopathic effect in MT-4 cells as described in J. Virol. Methods, 16, 171 (1987). Briefly, MT-4 cells were suspended in culture medium at 2.5×10^5 cells/ml and infected with 1000 CCID50 (50% cell culture infective dose) of HIV. Immediately, after virus infection, 100 μl of the cell suspension was brought into each well of a flat-bottomedmicrotiter tray containing various concentrations of the test compounds. After a 4 or 5 day incubation at 37° C., the number of viable cells was determined by the 3-(4,5-dimethylthiazol-2-yl)-2,5-diphenyltetrazoliumbromide (MTT) method, as disclosed in J. Virol. Methods, 20, 309 (1988).
ED50 : Effective concentration for the inhibition of the
proliferation of HIV by 50%

Each structure is given as a SMILES string. ≈ marks a conversion by molar mass, not a printed value. Where only a bound is given, the exact number is not on record here.

Consider `CCc1c(C(=O)c2cc(C)cc(C)c2)n(C/C=C/COC)c(=O)[nH]c1=O` [Example 82, 1-(4-methoxy-trans-2-butenyl)-5-ethyl-6-(3,5-dimethylbenzoyl)-2,4-pyrimidinedione], for which the CC50 in series [1] is 43.1 µg/mL (≈ 121 µM). In addition, in the series on HIV, the EC50 was below 0.32 µg/mL and the “S.I.: Selectivity index (CD50/ED50)” value was above 134.
`CCc1c(C(=O)c2cc(C)cc(C)c2)n(CC=C(C)C)c(=O)[nH]c1=O` [Example 7, 1-(3-methyl-2-butenyl)-5-ethyl-6-(3,5-dimethylbenzoyl)-2,4-pyrimidinedione]: the CC50 in series [1] came to 27.8 µg/mL (≈ 81.8 µM). Also, in the series with HIV, the EC50 is below 0.33 µg/mL and the “S.I.: Selectivity index (CD50/ED50)” value is given as above 84.
For `C#CCn1c(Cc2cc(C)cc(C)c2)c(CC)c(=O)[nH]c1=O` [Example 38, 1-propargyl-5-ethyl-6-(3,5-dimethylbenzyl)-2,4-pyrimidinedione], the CC50 in series [1] was found to be 24.1 µg/mL (≈ 81.5 µM). Further, in the series with HIV, the EC50 is below 0.32 µg/mL and the “S.I.: Selectivity index (CD50/ED50)” value was above 75.
For the molecule `CCc1c(Sc2cc(C)cc(C)c2)n(CC#Cc2ccccc2)c(=O)[nH]c1=O` [Example 26, 1-(3-phenyl-2-propynyl)-5-ethyl-6-(3,5-dimethylphenylthio)-2,4-pyrimidinedione], the CC50 in series [1] worked out at 4.93 µg/mL (≈ 12.6 µM). Further, in the series with HIV, the EC50 was below 0.009 µg/mL and the “S.I.: Selectivity index (CD50/ED50)” value is recorded as above 547.
As for `C/C=C\Cn1c(Oc2cc(C)cc(C)c2)c(CC)c(=O)[nH]c1=O` [Example 70, 1-(cis-2-butenyl)-5-ethyl-6-(3,5-dimethylphenoxy)-2,4-pyrimidinedione], the CC50 in series [1] amounted to 73.8 µg/mL (≈ 235 µM). Moreover, in the series on HIV, the EC50 is below 0.01 µg/mL and the “S.I.: Selectivity index (CD50/ED50)” value is reported as > 7,381.
For `CCc1c(C(=O)c2cc(C)cc(C)c2)n(C/C=C/c2ccccc2)c(=O)[nH]c1=O` [Example 45, 1-(trans-cinnamyl)-5-ethyl-6-(3,5-dimethylbenzoyl)-2,4-pyrimidinedione] the same measures were 5.97 µg/mL (≈ 15.4 µM), below 0.009 µg/mL and above 663.
Consider `C=CCn1c(Sc2ccccc2)c(CC)c(=O)[nH]c1=O` [Example 12, 1-allyl-5-ethyl-6-phenylthio-2,4-pyrimidinedione], for which the CC50 in series [1] amounted to 17.5 µg/mL (≈ 60.6 µM). Also, in the series on HIV, the EC50 is below 0.32 µg/mL and the “S.I.: Selectivity index (CD50/ED50)” value is above 54.
Consider `CC/C=C/Cn1c(Sc2cc(C)cc(C)c2)c(C(C)C)c(=O)[nH]c1=O` [Example 28], for which the CC50 in series [1] was 5.79 µg/mL (≈ 16.2 µM). Moreover, in the series with HIV, the EC50 is below 0.009 µg/mL and the “S.I.: Selectivity index (CD50/ED50)” value was above 643.
As to `CCc1c(Cc2cc(C)cc(C)c2)n(CC#Cc2ccccc2)c(=O)[nH]c1=O` [Example 40, 1-(3-phenyl-2-propynyl)-5-ethyl-6-(3,5-dimethylbenzyl)-2,4-pyrimidinedione], the CC50 in series [1] was 5.02 µg/mL (≈ 13.5 µM). For the same molecule, in the series on HIV, the EC50 is below 0.009 µg/mL and the “S.I.: Selectivity index (CD50/ED50)” value is above 557.
With `COC(=O)/C=C/Cn1c(Sc2cc(C)cc(C)c2)c(C(C)C)c(=O)[nH]c1=O` [Example 30], the CC50 in series [1] was found to be 17.7 µg/mL (≈ 45.6 µM). Besides, in the series on HIV, the EC50 is below 0.009 µg/mL and the “S.I.: Selectivity index (CD50/ED50)” value is recorded as > 1,966.
For `CC#CCn1c(Oc2cc(C)cc(C)c2)c(C(C)C)c(=O)[nH]c1=O` [Example 11, 1-(2-butynyl)-5-isopropyl-6-(3,5-dimethylphenoxy)-2,4-pyrimidinedione], the CC50 in series [1] amounted to 39.9 µg/mL (≈ 122 µM). In addition, in the series on HIV, the EC50 is below 0.32 µg/mL and the “S.I.: Selectivity index (CD50/ED50)” value was above 124.
For `C/C=C/Cn1c(C(=O)c2cc(C)cc(C)c2)c(CC)c(=O)[nH]c1=O` [Example 44], the CC50 in series [1] amounted to 34.4 µg/mL (≈ 105 µM). In the series with HIV, the EC50 is below 0.01 µg/mL and the “S.I.: Selectivity index (CD50/ED50)” value was > 3,439.
For the molecule `CC#CCn1c(Oc2cc(C)cc(C)c2)c(CC)c(=O)[nH]c1=O` [Example 58], the CC50 in series [1] stood at 48.9 µg/mL (≈ 157 µM). Also, in the series on HIV, the EC50 was below 0.34 µg/mL and the “S.I.: Selectivity index (CD50/ED50)” value is reported as above 143.
`CCc1c(C(=O)c2cc(C)cc(C)c2)n(CC#Cc2ccccc2)c(=O)[nH]c1=O` [Example 50, 1-(3-phenyl-2-propynyl)-5-ethyl-6-(3,5-dimethylbenzoyl)-2,4-pyrimidinedione]: in series [1], the CC50 came to 4.34 µg/mL (≈ 11.2 µM). In the series with HIV, the EC50 is below 0.009 µg/mL and the “S.I.: Selectivity index (CD50/ED50)” value is above 482.
For the molecule `CCc1c(Cc2cc(C)cc(C)c2)n(CC=C(C)C)c(=O)[nH]c1=O` [Example 36, 1-(3-methyl-2-butenyl)-5-ethyl-6-(3,5-dimethylbenzyl)-2,4-pyrimidinedione], in series [1], the CC50 came to 22.1 µg/mL (≈ 67.6 µM). Besides, in the series on HIV, the EC50 was below 0.33 µg/mL and the “S.I.: Selectivity index (CD50/ED50)” value is given as 66.
As to `CCc1c(Sc2cc(C)cc(C)c2)n(C/C=C/C(=O)OC)c(=O)[nH]c1=O` [Example 21], the CC50 in series [1] amounted to 41.4 µg/mL (≈ 111 µM). For the same molecule, in the series on HIV, the EC50 is below 0.32 µg/mL and the “S.I.: Selectivity index (CD50/ED50)” value is recorded as above 129.
As for `C/C=C/Cn1c(C(=O)c2cc(C)cc(C)c2)c(C(C)C)c(=O)[nH]c1=O` [Example 51], the CC50 in series [1] came to 22.3 µg/mL (≈ 65.4 µM). In addition, in the series on HIV, the EC50 was below 0.01 µg/mL and the “S.I.: Selectivity index (CD50/ED50)” value is > 2,473.
As to `CCc1c(C(=O)c2cc(C)cc(C)c2)n(C/C=C/CCl)c(=O)[nH]c1=O` [Example 47], the CC50 in series [1] came out at 6.7 µg/mL (≈ 18.6 µM). Further, in the series with HIV, the EC50 was below 0.009 µg/mL and the “S.I.: Selectivity index (CD50/ED50)” value is on record as above 774.
For the molecule `CC#CCn1c(C(=O)c2cc(C)cc(C)c2)c(CC)c(=O)[nH]c1=O` [Example 49, 1-(2-butynyl)-5-ethyl-6-(3,5-dimethylbenzoyl)-2,4-pyrimidinedione], in series [1], the CC50 stood at 5.2 µg/mL (≈ 16 µM). Also, in the series with HIV, the EC50 is below 0.032 µg/mL and the “S.I.: Selectivity index (CD50/ED50)” value is recorded as above 162.
The matching figures for `C=CCn1c(Oc2cc(C)cc(C)c2)c(CC)c(=O)[nH]c1=O` [Example 57, 1-allyl-5-ethyl-6-(3,5-dimethylphenoxy)-2,4-pyrimidinedione]: 42.4 µg/mL (≈ 141 µM), below 0.32 µg/mL and above 132.
Turning to `C/C=C/Cn1c(Cc2cc(C)cc(C)c2)c(C(C)C)c(=O)[nH]c1=O` [Example 41], in series [1], the CC50 was 21 µg/mL (≈ 64.5 µM). Moreover, in the series with HIV, the EC50 turned out to be 0.01 µg/mL (≈ 0.0306 µM) and the “S.I.: Selectivity index (CD50/ED50)” value is listed as > 2,104.
For `Cc1cc(C)cc(Sc2c(C(C)C)c(=O)[nH]c(=O)n2CC#Cc2ccccc2)c1` [Example 3, 1-(3-phenyl-2-propynyl)-5-isopropyl-6-(3,5-dimethylphenylthio)-2,4-pyrimidinedione] the same measures were 7.94 µg/mL (≈ 19.6 µM), below 0.009 µg/mL and above 882.
With `C=CCn1c(Sc2cc(C)cc(C)c2)c(CC)c(=O)[nH]c1=O` [Example 18, 1-allyl-5-ethyl-6-(3,5-dimethylphenylthio)-2,4-pyrimidinedione], the CC50 in series [1] is 3.9 µg/mL (≈ 12.3 µM). Moreover, in the series on HIV, the EC50 was below 0.032 µg/mL and the “S.I.: Selectivity index (CD50/ED50)” value was above 121.
For the molecule `CCc1c(C(=O)c2cc(C)cc(C)c2)n(C/C=C/CO)c(=O)[nH]c1=O` [Example 84], the CC50 in series [1] amounted to 55.4 µg/mL (≈ 162 µM). In addition, in the series with HIV, the EC50 is below 0.009 µg/mL and the “S.I.: Selectivity index (CD50/ED50)” value is > 6,160.
The matching figures for `CCc1c(Oc2cc(C)cc(C)c2)n(C/C=C/c2ccccc2)c(=O)[nH]c1=O` [Example 59, 1-(trans-cinnamyl)-5-ethyl-6-(3,5-dimethylphenoxy)-2,4-pyrimidinedione]: 38.6 µg/mL (≈ 102 µM), below 0.23 µg/mL and above 167.
For the molecule `CCc1c(Sc2ccccc2)n(C/C=C\COCc2ccccc2)c(=O)[nH]c1=O` [Example 17], the CC50 in series [1] amounted to 5.79 µg/mL (≈ 14.2 µM). In the series on HIV, the EC50 is 3.68 µg/mL (≈ 9.01 µM) and the “S.I.: Selectivity index (CD50/ED50)” value amounted to 1.57.
On to `Cc1cc(C)cc(C(=O)c2c(C(C)C)c(=O)[nH]c(=O)n2C/C=C/c2ccccc2)c1` [Example 52], for which the CC50 in series [1] worked out at 9.75 µg/mL (≈ 24.2 µM). Also, in the series with HIV, the EC50 is below 0.009 µg/mL and the “S.I.: Selectivity index (CD50/ED50)” value was > 1,083.
The matching figures for `Cc1cc(C)cc(Oc2c(C(C)C)c(=O)[nH]c(=O)n2CC#Cc2ccccc2)c1` [Example 67, 1-(3-phenyl-2-propynyl)-5-isopropyl-6-(3,5-dimethylphenoxy)-2,4-pyrimidinedione]: 7.6 µg/mL (≈ 19.6 µM), below 0.009 µg/mL and above 844.
Turning to `C=CCn1c(C(=O)c2cc(C)cc(C)c2)c(CC)c(=O)[nH]c1=O` [Example 43, 1-allyl-5-ethyl-6-(3,5-dimethylbenzoyl)-2,4-pyrimidinedione], the CC50 in series [1] worked out at 54.5 µg/mL (≈ 175 µM). Further, in the series on HIV, the EC50 was below 0.17 µg/mL and the “S.I.: Selectivity index (CD50/ED50)” value is above 320.
For `CC#CCn1c(Sc2cc(C)cc(C)c2)c(C(C)C)c(=O)[nH]c1=O` [Example 31, 1-(2-butynyl)-5-isopropyl-6-(3,5-dimethylphenylthio)-2,4-pyrimidinedione], the CC50 in series [1] turned out to be 16.9 µg/mL (≈ 49.5 µM). In the series on HIV, the EC50 was below 0.32 µg/mL and the “S.I.: Selectivity index (CD50/ED50)” value is recorded as above 52.
On to `C/C=C/Cn1c(Cc2ccccc2)c(CC)c(=O)[nH]c1=O` [Example 32], for which, in series [1], the CC50 worked out at 32.4 µg/mL (≈ 114 µM). Further, in the series with HIV, the EC50 was below 0.32 µg/mL and the “S.I.: Selectivity index (CD50/ED50)” value is on record as above 101.
The matching figures for `Cc1cc(C)cc(Sc2c(C(C)C)c(=O)[nH]c(=O)n2C/C=C/c2ccccc2)c1` [Example 29]: 37.1 µg/mL (≈ 91.4 µM), below 0.023 µg/mL and > 1,615.
